SMILES strings stand for the structures.

From publication PMC3006138, “Fexinidazole – A New Oral Nitroimidazole Drug Candidate Entering Clinical Development for the Treatment of Sleeping Sickness” (PLoS Neglected Tropical Diseases, 2010) come the findings set out here.

One data set is described as follows: in vitro. Conditions: human. As to the method: Caco-2 [36] or MDR1-MDCK (Madin Darby canine kidney cells transfected with the human multidrug resistance MDR1 gene) cell monolayers were grown to confluence on collagen-coated, microporous, polycarbonate membranes in 12-well microtitre plates. The buffer for the donor chamber was Hanks balanced salt solution with 10 mM HEPES and 15 mM glucose at pH 7.4. The buffer in the receiver chamber contained the same with the addition of 1% bovine serum albumin (BSA). The test article was added at 5 µM in the assay buffer. […] After 2 h, duplicate aliquots were taken from the donor and receiver chambers and assayed via LC/MS. The apparent permeability and recovery were calculated using standard methods.
The objective of this study was to determine the bi-directional Caco-2 permeability and efflux limited absorption poten tial of thr ee test compoun ds. […]
4 . […] Th e test compound dosing concentrations were 5 µM in th e a ssay bu f fer . […] After two hours, a l iquot s wer e t a ken fr om th e r ecei ver an d don or cha m ber s. E a ch det erm ina ti on wa s per for m ed in dupl i cat e. Th e Lucifer Yellow flux was also measur ed for each mon olayer after bein g subjected to th e test compoun ds to en sur e n o damage was in flicted to th e cell mon olayer s durin g th e flux per iod. All samples wer e assayed by LC/MS/MS usin g electrospray ionization. Analytical conditions are outlined in Attachment I. The apparent permeability, Papp, and per cen t r ecover y wer e calculated as follows:
Papp = (dCr /dt) x Vr/(AxC) (1)
P er cen t Rec o ver y = 1 0 0 x ( ( V r x C rfi n a l ) + (Vd x Cd fi n a l ))/(Vd x C N) (2) […]
dCr /dt is th e slope of th e cumulative con cen tration in th e r eceiver compartment ver sus time in µM s -1. […]

A short description of data set [1]: Cardiovascular safety by telemetry. The settings on record: single oral dose. The method, then:
Cardiovascular safety parameters were assessed in beagle dogs. Four adult (>1 year old) beagle dogs were given oral doses of fexinidazole at 100, 300 and 1000 mg/kg in an escalating dose design.
6.3. Treatment and Experimental Design
Experimental Day Treatmenta Dose (mg/kg) Volume Animal numbers (males) […]
a) Animals were treated following an escalating dose design with an adequate washout (at least 5 half lives of the longer lasting metabolite) between doses
Doses of 100, 300 and 1000 mg/kg of fexinidazole were selected based on the results of a […]
The oral route is that intende d for clinical administration.
6.3.1. Clinical Observation […]
dosing. Body weights are not reported here but they are archived with the study file.
6.3.2. Telemetry recordings
On the day of dosing, telemetry signals from each animal were collected continuously […]
The following parameters were calculated:
− Systolic blood pressure (SBP, mmHg)
− Diastolic blood pressure (DBP, mmHg)
− Average blood pressure (ABP, mmHg)
− Heart rate (HR, bpm, from the blood pressure signal)
− ECG intervals (RR, PR, QRS and QT, ms)
− Body temperature (BT, °C)
All the above-mentioned parameters were extracted automatically by the Notocord HEM acquisition software (Notocord, Croissy-sur-Seine, France) as the average value of 10-second recordings. […]

The term Papp A→B denotes how fast a substance crosses the layer from the apical side. A low value points to poor permeation. In general, Papp B→A refers to how fast a substance crosses the layer from the basolateral side. Broadly, the efflux ratio is a quotient of directional permeabilities that is used to spot active efflux. As to `CSc1ccc(OCc2ncc([N+](=O)[O-])n2C)cc1` [Fexinidazole, 1-methyl-2-((p-(methylthio)phenoxy)methyl)-5-nitroimidazole], in “in vitro” (Caco-2, pH 7.4), the apical-to-basolateral permeability (Papp A→B) at 2 h, 5 µM was determined as 57.2 ×10⁻⁶ cm/s; the Papp B→A at 2 h, 5 µM was found to be 50.9 ×10⁻⁶ cm/s; the efflux ratio at 2 h, 5 µM stood at 0.9. In addition, the recovery at 2 h, 5 µM in the data set “in vitro” (Caco-2, pH 7.4, Percent Recovery A→B) is 72%. For the same molecule, the recovery at 2 h, 5 µM in “in vitro” (Caco-2, pH 7.4, Percent Recovery B→A) was determined as 81%. For the same molecule, in data set [1], the “NOEL on body temperature” value was 100 mg/kg; the “NOEL on cardiovascular parameters and ECG intervals” value came to 1000 mg/kg.
